Here are results for 1 molecule from patent US8431541B2, “Alpha-amylase inhibitors: the montbretins and uses thereof” (The University of British Columbia, priority 2007, dated 2013).

In series [1] the test system is β-hexosaminidase (Jack Bean). Description: Glycosidase specificity: β-hexosaminidase. The format is biochemical. The settings on record: at 0.1 μM Montbretin A.
Series [2] is described as follows: Stability in simulated intestinal fluid (SIF) by UPLC. The format is in vitro ADME. The settings on record: SIF pH 6.89, 37° C., within 3 hours. The protocol: (§1) The stability of montbretin A in both simulated intestinal fluid (SIF) and simulated gastric fluid (SGF) were analyzed via ultra performance liquid chromatography (UPLC). The instrument consisted of a Waters® Acquity™ UPLC system equipped with a PDA and a TQ detector in tandem. The 2 μL sample injection volume was passed through a Waters® Acquity™ BEH C18 column (1.7 μm, 2.1×100 mm), with mobile phases A and B consisting of water with 0.1% formic acid and acetonitrile with 0.1% formic acid, respectively. The mobile phases were delivered at a programmed linear gradient at a column temperature of 35° C. Linearity was evaluated using a set of montbretin A calibration standards with concentrations ranging from 10 to 100 μg/mL in water. […]
(§2) To examine the gastrointestinal fluid activity, 0.5 mg/ml solutions of oleamide (positive control) in SGF or SIF were prepared by diluting a 100 μL aliquot of oleamide (50 mg/mL in 2-propanol) to 10 mL with either SGF or SIF and incubated in a 37° C. water bath for 1 or 3 hours, respectively. At time points of 1 or 3 hours, the sample was removed from the water bath and a 100 μL aliquot of the resulting solution was diluted to 1 mL with de-ionized water in a glass UPLC glass sample vial and analyzed by UPLC for oleamide content. […]

A short description of series [3]: Stability in simulated gastric fluid (SGF) by UPLC. The format is in vitro ADME. The conditions noted are these: SGF pH 1.51, 37° C., 1 hour. The protocol:
as §1, §2

For a further series, the system named is male Wistar rats. As to the kind of experiment: Taste aversion study, drinking water. The conditions noted are these: approximately 10 mg/kg/day in drinking water. The series is classed as in vivo, rat. The protocol: A study was done to determine if there is aversion by animals to the taste of montbretin A dissolved in drinking water. Six (6) male Wistar rats weighing between 500-650 g were housed 2 rats per cage. Three hundred grams (300 g) of standard rat chow (Purnia) was placed in the food hopper of each cage daily. Food consumption per cage per day was determined every 24 hours for 3 days. A fluid volume of 900 ml of drinking water was placed on each cage daily. Fluid consumption per cage per day was determined every 24 hours for 3 days. Body weights of each animal were measured every 24 hours.
Based on the preliminary drinking water values obtained, montbretin A was dissolved in the drinking water so as to deliver a dose of 10 mg/kg/day. Body weight and food consumption measurements were done as described above. A fluid volume of 250 ml of montbretin A solution at a concentration of 0.09 mg/ml was placed on each cage daily. Fluid consumption was measured every 24 hours for 3 days.
The food and fluid consumption and body weights were analyzed. The dose of montbretin A was determined based on weight and consumption values. There was no effect of montbretin A dissolved in the drinking water on body weight, fluid intake or food intake and a dose of approximately 10 mg/kg was achieved.

Series [4] has as its target T1, α-mannosidase (Jack Bean) (Canavalia ensiformis, UniProt C0HJB3).
T1 sequence (C0HJB3 1-981): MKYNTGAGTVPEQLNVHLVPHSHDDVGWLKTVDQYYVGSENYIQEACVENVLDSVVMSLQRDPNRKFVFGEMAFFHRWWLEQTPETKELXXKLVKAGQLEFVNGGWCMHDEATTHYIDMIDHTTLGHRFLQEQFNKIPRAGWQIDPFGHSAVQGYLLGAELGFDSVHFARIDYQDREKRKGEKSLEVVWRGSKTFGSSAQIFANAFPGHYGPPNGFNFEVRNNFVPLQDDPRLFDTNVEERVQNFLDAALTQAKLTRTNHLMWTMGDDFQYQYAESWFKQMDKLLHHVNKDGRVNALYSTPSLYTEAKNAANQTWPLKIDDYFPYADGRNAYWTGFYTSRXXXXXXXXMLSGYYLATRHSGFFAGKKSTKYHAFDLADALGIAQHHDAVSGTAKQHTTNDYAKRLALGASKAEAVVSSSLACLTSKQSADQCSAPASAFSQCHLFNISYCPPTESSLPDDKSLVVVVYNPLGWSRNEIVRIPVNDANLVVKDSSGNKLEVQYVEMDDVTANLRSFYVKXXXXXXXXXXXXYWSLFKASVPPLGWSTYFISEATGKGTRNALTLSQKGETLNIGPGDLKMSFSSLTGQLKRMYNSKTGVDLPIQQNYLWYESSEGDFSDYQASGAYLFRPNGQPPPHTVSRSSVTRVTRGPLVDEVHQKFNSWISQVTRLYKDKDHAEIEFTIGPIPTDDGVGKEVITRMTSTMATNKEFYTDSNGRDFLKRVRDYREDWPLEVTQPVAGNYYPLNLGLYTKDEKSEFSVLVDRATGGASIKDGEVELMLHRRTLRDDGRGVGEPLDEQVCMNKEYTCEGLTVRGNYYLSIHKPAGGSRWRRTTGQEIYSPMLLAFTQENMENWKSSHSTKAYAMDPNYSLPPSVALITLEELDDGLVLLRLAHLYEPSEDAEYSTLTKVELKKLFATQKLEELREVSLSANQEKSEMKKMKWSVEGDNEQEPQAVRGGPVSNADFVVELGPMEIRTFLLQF
Description: Glycosidase specificity: α-mannosidase. The series is classed as biochemical. The conditions noted are these: at 0.1 μM Montbretin A; read-out: RA (%), Residual Enzyme Activity.

Turning to `CC1O[C@@H](O[C@@H]2CO[C@@H](Oc3c(O)cc(-c4oc5cc(O)cc(O)c5c(=O)c4O[C@@H]4OC(C)[C@H](O)[C@H](O)C4O[C@@H]4OC(COC(=O)/C=C/c5ccc(O)c(O)c5)[C@@H](O)[C@@H](O)C4O[C@@H]4OC(CO)[C@@H](O)[C@@H](O)C4O)cc3O)C(O)[C@@H]2O)C(O)[C@@H](O)[C@H]1O` (some centres unmarked) [Montbretin A, montbretin A], the “RA (%), Residual Enzyme Activity” value in series [1] was 99%. The “degradation in SIF” value in series [2] is given as “no significant degradation”. In addition, the “degradation or loss in SGF” value in series [3] is reported as roughly 10%. Also, in the series with male Wistar rats (3 days), the “effect on body weight” value is on record as “no effect”, the “effect on fluid intake” value is “no effect” and the “effect on food intake” value is given as “no effect”. The side effects entry in the series on male Wistar rats (duration of the trial) was “no overt indications of side effects”. In addition, in series [4], the remaining activity at 0.1 µM turned out to be 100%.
